Results on one substance are retold here after patent publication US9518976B2, “Methods for identifying or assaying for agents that increase beta-cell proliferation, insulin secretion, insulin sensitivity, glucose tolerance and decrease fat mass” (The Trustees of Columbia University in The City of New York, priority 2006, dated 2016).

Assay [1] can be described thus: Osteocalcin subcutaneous infusion in wt mice: body weight and gonadal fat pad mass. It is filed as in vivo, mouse. The protocol:
FIG. 13. […] 1) Indicated doses of recombinant osteocalcin or PBS were infused subcutaneously for 28 days in wt mice. Body weight was recorded at indicated days. (2). Gonadal fat pad mass was measured after 28 days.
In another in vivo experiment, the effect of uncarboxylated osteocalcin on body weight and fat pad mass was monitored (FIG. 13). Wild type mice were infused subcutaneously for 28 days with PBS or uncarboxylated osteocalcin at 0.3, 1 or 3 ng/hour. […] (FIG. 13) Gonadal fat pad mass, measured after 28 days, decreased by about % 18 with 3 ng/hour uncarboxylated osteocalcin treatment.

Assay [2] relates to WT islets. The assay is described as follows: Insulin and Cyclin D1 expression in WT islets cultured with uncarboxylated osteocalcin. The following applies: 0.3 ng/ml (FIG. 7L). It is filed as cell-based, mouse. From the text: FIG. 7. Esp−/− Mice Are a Model of Increased Osteocalcin Bioactivity. (A-G) Comparison between 6-week-old WT, Esp−/, Ocn+/−, and Esp−/−; Ocn+/− mice. (A) Blood glucose levels. (B) Serum insulin levels. (C) Serum adiponectin levels. (D) GTT. (E) ITT. (F) GSIS test. (G) Quantification of the number of Ki67-immunoreactive cells in pancreatic islets. […] (J) Expression of Adiponectin in WT adipocytes cocultured with osteoblasts treated with warfarin or vehicle. (K) Expression of Adiponectin in WT adipocytes cultured in presence of vehicle or of 1 ng/ml of commercially available carboxylated osteocalcin (Immunotopics) or bacterially produced uncarboxylated osteocalcin. (L) Expression of Insulin and Cyclin D1 in WT islets cultured in presence of 0.3 ng/ml of bacterially produced uncarboxylated osteocalcin or vehicle. (M) Metabolic parameters and total serum osteocalcin levels in control and obese patients. (N-O) Quantification of carboxylated osteocalcin (HA-bound osteocalcin) in control and obese patients. In (A)-(C) and (G)-(L): *p<0.05 versus WT (Student's t test); in (D)-(F), °p<0.05 versus WT and *p % 0.001 versus WT (ANOVA followed by post hoc analysis).
Islets were isolated using a Histopaque gradient (1077, Sigma). In brief, after clamping the common bile duct at its entrance to the duodenum, 1 mg/ml collagenase P (Sigma) in M199 medium (GIBCO) was injected into the duct. […]

Assay [3] concerns Wild type mice. The assay is described as follows: Osteocalcin subcutaneous infusion in wt mice: glycemia. It counts as in vivo, mouse. The following applies: 0.3, 1 and 3 ng/hour subcutaneous infusion for 28 days, vs PBS. The protocol:
FIG. 10. […] Indicated doses of recombinant osteocalcin or PBS were infused subcutaneously for 28 days in wt mice. Blood glucose was measured at indicated days.
An in vivo experiment was conducted in which the effect of undercarboxylated osteocalcin on glycemia was monitored. Wild type mice were infused with 3 different amounts of mouse recombinant undercarboxylated osteocalcin or placebo (PBS) subcutaneously for 28 days (0.3, 1 and 3 ng/hour).

Assay [4] has as its system GTG-induced obesity in wt mice. The assay is described as follows: Osteocalcin subcutaneous infusion in gold thioglucose (GTG)-injected wt mice: body weight gain. It counts as in vivo, mouse. Particulars: GTG-injected wild type mice; for body weight gain: 1 ng/hr s.c. osmotic pump for 28 days, from 7 days on, vs PBS. The protocol: FIG. 14. […] Wt mice were injected with gold thioglucose (GTG) or vehicle to induce hyperphagia and obesity. Two weeks later they were implanted with subcutaneous osmotic pumps infusing […] of recombinant osteocalcin or PBS for 28 days before. Body weight gain was recorded thereafter at indicated days.
The effect of uncarboxylated osteocalcin on GTG-induced obesity was investigated (FIG. 14). Wild type mice were injected with gold thioglucose (GTG) to induce hyperphagia and obesity or vehicle. Two weeks later they were implanted with subcutaneous osmotic pumps infusing 1 ng/hr of recombinant uncarboxylated osteocalcin or PBS for 28 days. […] At 28 days, body weight was reduced by about 15% with uncarboxylated osteocalcin treatment.

Assay [5] deals with Wild type mice. The assay is described as follows: Osteocalcin subcutaneous infusion in wt mice: glucose tolerance after glucose injection. It is filed as in vivo, mouse. Particulars: 0.3 or 3 ng/hour s.c. for 14 days, then single glucose injection, 120 minute period, vs PBS. The protocol:
FIG. 11. […] Wt mice were infused subcutaneously with indicated doses of recombinant osteocalcin or PBS for 14 days before receiving a single injection of glucose. Blood glucose was measured thereafter at indicated times.
For glucose tolerance test (GTT), glucose (2 g/kg body weight (BW)) was injected intraperitoneally (IP) after an overnight fast and blood glucose was monitored using blood glucose strips and the Accu-Check glucometer (Roche) at indicated times. For glucose stimulated insulin secretion test (GSIS), glucose (3 g/kg BW) was injected IP after an overnight fast; sera were collected from tails and insulin measured as described (Mauvais-Jarvis et al., 2000). For insulin tolerance test (ITT), mice were fasted for six hours, injected IP with insulin (0.2 U/kg BW) and blood glucose levels were measured at indicated times as described (Mauvais-Jarvis et al., 2002). ITT data are presented as percentage of initial blood glucose concentration. […] Streptozotocin ([…] single injection, Sigma) was injected IP and blood glucose measured as described above every 2 days thereafter. […] Food intake was measured using metabolic cages as the daily change of food weight. Energy expenditure was measured using metabolic cages connected to a calorimeter (Columbus Instrument). Heat values (Kcal/Hr) were recorded over 2 days and reported to each mouse BW. […]

The mark [6] stands for this setting: listed as recombinant osteocalcin.

Ends that are not written are not given here.

As for “uncarboxylated osteocalcin: Recombinant mouse osteocalcin bacterially produced, cleaved from GST with thrombin; completely undercarboxylated at all three sites (YLGASVPSPDPLEPTREQCELNPACDELSDQYGLKTAYKRIYGITI; not fully specified; ends and bridges not checked; UniProt P86546 50-95, looked up)”, the “gonadal fat pad mass decrease” value in assay [1] (wild type mice, 3 ng/hour s.c., after 28 days) is recorded as approximately 18%. Moreover, the body weight result in assay [1] (wild type mice, 0.3, 1 or 3 ng/hour s.c. for 28 days, highest dose most effective) is “slightly reduced”. The “gonadal fat pad mass” value in assay [1] (wild type mice, the other doses (0.3, 1 ng/hour), 28 days) is listed as “did not significantly decrease”. Further, the fat mass result in assay [1] (wt mice, indicated doses s.c. for 28 days (FIG. 13 legend)) is reported as “decreases fat mass”. In addition, in assay [2], the “expression of Cyclin D1, marker of beta-cell proliferation” value is on record as “induced”. Moreover, in assay [2], the insulin expression entry is recorded as “induced”. The “glycemia (blood glucose)” value is given as “decreases glycemia” in assay [3] (setting [6]) and “decreased glycemia” in assay [3] (listed as undercarboxylated osteocalcin). The body weight gain entry in assay [4] is “significantly reduced”; in assay [4] (setting [6]), “prevents GTG-induced obesity”. The body weight reduction result in assay [4] (1 ng/hr s.c., at 28 days) is recorded as “about 15%”. The results for the glucose tolerance result in assay [5] and in assay [5] (setting [6]) were “increased glucose tolerance” and “increases glucose tolerance”, respectively.
